Each molecule was assayed against T1, GLP-1R (Homo sapiens, UniProt P43220) (assay: GLP-1R activation cAMP assay (Assay 1 or Assay 2)). Settings: cAMP increase in CHO cells stably expressing GLP-1R; compounds run on one of the two cAMP assays.
T1 construct: host or cells: CHO cells
Assay type: cell-based
In short: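 EC50 values come from a sigmoidal fit of HTRF-detected cAMP rise versus log agonist concentration. GLP-1R-expressing CHO cells, equilibrated 1 h at 37 °C in HBSS with HEPES and BSA, received a 10-point compound dose series for 30 min before detection.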

T1 sequence (P43220 24-463): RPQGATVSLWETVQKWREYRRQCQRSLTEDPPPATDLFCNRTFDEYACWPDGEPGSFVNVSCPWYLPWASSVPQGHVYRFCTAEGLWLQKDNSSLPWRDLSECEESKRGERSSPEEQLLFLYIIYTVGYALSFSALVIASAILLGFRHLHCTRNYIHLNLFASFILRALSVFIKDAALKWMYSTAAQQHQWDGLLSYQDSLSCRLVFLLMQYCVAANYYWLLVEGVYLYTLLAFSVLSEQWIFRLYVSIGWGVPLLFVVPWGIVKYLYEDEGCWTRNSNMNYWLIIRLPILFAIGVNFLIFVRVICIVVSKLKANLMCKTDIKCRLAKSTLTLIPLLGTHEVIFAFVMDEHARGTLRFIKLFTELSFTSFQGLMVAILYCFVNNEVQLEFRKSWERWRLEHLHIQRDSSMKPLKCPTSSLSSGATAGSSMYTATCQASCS

| Molecule | EC50 |
| --- | --- |
| O=C(O)c1ccc2nc(Cc3cc(F)c(-c4cccc(OCc5nc6cc(Cl)ccc6s5)n4)cc3F)n(C[C@@H]3CCO3)c2c1 [Example 35, (S)-2-(4-(6-((5-chlorobenzo[d]thiazol-2-yl)methoxy)pyridin-2-yl)-2,5-difluorobenzyl)-1-(oxetan-2-ylmethyl)-1H-benzo[d]imidazole-6-carboxylic acid] | 220 pM |
| CCOc1nnc(COc2cccc(-c3cc(F)c(Cc4nc5ccc(C(=O)O)cc5n4[C@@H]4COCC4(C)C)cc3F)n2)s1 [Example 430, (S)-1-(4,4-dimethyltetrahydrofuran-3-yl)-2-(4-(6-((5-ethoxy-1,3,4-thiadiazol-2-yl)methoxy)pyridin-2-yl)-2,5-difluorobenzyl)-1H-benzo[d]imidazole-6-carboxylic acid] | 39 pM |
| Cn1cc(-c2cnc(COc3cccc(-c4cc(F)c(Cc5nc6ccc(C(=O)O)cc6n5[C@H]5COCC5(C)C)cc4F)n3)s2)cn1 [Example 97, (R)-2-(2,5-difluoro-4-(6-((5-(1-methyl-1H-pyrazol-4-yl)thiazol-2-yl)methoxy)pyridin-2-yl)benzyl)-1-(4,4-dimethyltetrahydrofuran-3-yl)-1H-benzo[d]imidazole-6-carboxylic acid] | 110 pM |
| (S)-2-(4-(6-((5-cyano-3-fluorothiophen-2-yl)methoxy)-5-fluoropyridin-2-yl)-2,5-difluorobenzyl)-4-fluoro-1-(oxetan-2-ylmethyl)-1H-benzo[d]imidazole-6-carboxylic acid [Example 310] | 38 pM |
| O=C(O)c1ccc2nc(Cc3cc(F)c(-c4cccc(OCc5ccn(C6CC6)n5)n4)cc3F)n(C[C@@H]3CCO3)c2c1 [Example 6, (S)-2-(4-(6-((1-cyclopropyl-1H-pyrazol-3-yl)methoxy)pyridin-2-yl)-2,5-difluorobenzyl)-1-(oxetan-2-ylmethyl)-1H-benzo[d]imidazole-6-carboxylic acid] | 3090 pM |
| CCOc1nnc(COc2nc(-c3cc(F)c(Cc4nc5ccc(C(=O)O)cc5n4[C@@H]4COCC4(C)C)cc3F)ccc2F)s1 [Example 424, (S)-1-(4,4-dimethyltetrahydrofuran-3-yl)-2-(4-(6-((5-ethoxy-1,3,4-thiadiazol-2-yl)methoxy)-5-fluoropyridin-2-yl)-2,5-difluorobenzyl)-1H-benzo[d]imidazole-6-carboxylic acid] | 27 pM |
| NC(=O)c1ccc(COc2nccc(-c3cc(F)c(Cc4nc5ccc(C(=O)O)cc5n4C[C@@H]4CCO4)cc3F)n2)cn1 [Example 222, (S)-2-(4-(2-((6-carbamoylpyridin-3-yl)methoxy)pyrimidin-4-yl)-2,5-difluorobenzyl)-1-(oxetan-2-ylmethyl)-1H-benzo[d]imidazole-6-carboxylic acid] | 3590 pM |
| Cc1nnc(COc2cccc(-c3cc(F)c(Cc4nc5ccc(C(=O)O)cc5n4[C@H]4COCC4(C)C)c(F)c3F)n2)s1 (single isomer, unassigned) [Example 281B] | 20800 pM |
| COCc1noc(COc2cccc(-c3cc(F)c(Cc4nc5ccc(C(=O)O)cc5n4C[C@@H]4CCO4)cc3F)n2)n1 [Example 16, (S)-2-(2,5-difluoro-4-(6-((3-(methoxymethyl)-1,2,4-oxadiazol-5-yl)methoxy)pyridin-2-yl)benzyl)-1-(oxetan-2-ylmethyl)-1H-benzo[d]imidazole-6-carboxylic acid] | 8860 pM |
| O=C(O)c1ccc2nc(Cc3cc(F)c(-c4cccc(OCc5ncc(-c6cnn(CC7CC7)c6)s5)n4)cc3F)n(C[C@@H]3CCO3)c2c1 [Example 88, (S)-2-(4-(6-((5-(1-(cyclopropylmethyl)-1H-pyrazol-4-yl)thiazol-2-yl)methoxy)pyridin-2-yl)-2,5-difluorobenzyl)-1-(oxetan-2-ylmethyl)-1H-benzo[d]imidazole-6-carboxylic acid] | 440 pM |
| O=C(O)c1ccc2nc(Cc3cc(F)c(-c4cccc(OCc5nnc(Cl)s5)n4)cc3F)n(C[C@@H]3CCO3)c2c1 [Example 49, (S)-2-(4-(6-((5-chloro-1,3,4-thiadiazol-2-yl)methoxy)pyridin-2-yl)-2,5-difluorobenzyl)-1-(oxetan-2-ylmethyl)-1H-benzo[d]imidazole-6-carboxylic acid] | 650 pM |
| CNC(=O)c1csc(COc2cccc(-c3cc(F)c(Cc4nc5ccc(C(=O)O)cc5n4C[C@@H]4CCO4)cc3F)n2)n1 [Example 373, (S)-2-(2,5-difluoro-4-(6-((4-(methylcarbamoyl)thiazol-2-yl)methoxy)pyridin-2-yl)benzyl)-1-(oxetan-2-ylmethyl)-1H-benzo[d]imidazole-6-carboxylic acid] | 79 pM |
| O=C(O)c1ccc2nc(Cc3cc(F)c(-c4cccc(OCc5ncc(C#Cc6cn[nH]c6)cc5F)n4)cc3F)n(C[C@@H]3CCO3)c2c1 [Example 286, (S)-2-(4-(6-((5-((1H-pyrazol-4-yl)ethynyl)-3-fluoropyridin-2-yl)methoxy)pyridin-2-yl)-2,5-difluorobenzyl)-1-(oxetan-2-ylmethyl)-1H-benzo[d]imidazole-6-carboxylic acid] | 42 pM |
| Cc1cnc(COc2cccc(-c3cc(F)c(Cc4nc5ccc(C(=O)O)cc5n4C[C@@H]4CCO4)cc3F)n2)s1 [Example 327, (S)-2-(2,5-difluoro-4-(6-((5-methylthiazol-2-yl)methoxy)pyridin-2-yl)benzyl)-1-(oxetan-2-ylmethyl)-1H-benzo[d]imidazole-6-carboxylic acid] | 381 pM |
| O=C(O)c1ccc2nc(Cc3cc(F)c(-c4cccc(OCc5ncc(-c6cnn(C(F)F)c6)s5)n4)cc3F)n(C[C@@H]3CCO3)c2c1 [Example 84, (S)-2-(4-(6-((5-(1-(difluoromethyl)-1H-pyrazol-4-yl)thiazol-2-yl)methoxy)pyridin-2-yl)-2,5-difluorobenzyl)-1-(oxetan-2-ylmethyl)-1H-benzo[d]imidazole-6-carboxylic acid] | 70 pM |

Further molecules by falling EC50, results first:

| EC50 | Molecule |
| --- | --- |
| 1950 pM | N#Cc1cc(COc2cccc(-c3cc(F)c(Cc4nc5ccc(C(=O)O)cc5n4C[C@@H]4CCO4)cc3F)n2)cs1 [Example 128, (S)-2-(4-(6-((5-cyanothiophen-3-yl)methoxy)pyridin-2-yl)-2,5-difluorobenzyl)-1-(oxetan-2-ylmethyl)-1H-benzo[d]imidazole-6-carboxylic acid] |
| 1110 pM | CO[C@H](C)Cn1c(Cc2cc(F)c(-c3cccc(OCc4ncc(-c5cnn(C)c5)s4)n3)cc2F)nc2ccc(C(=O)O)cc21 [Example 224, 2-[[2,5-difluoro-4-[6-[[5-(1-methylpyrazol-4-yl)thiazol-2-yl]methoxy]-2-pyridyl]phenyl]methyl]-3-[(2R)-2-methoxypropyl]benzimidazole-5-carboxylic acid] |
| 600 pM | O=C(O)c1ccc2nc(Cc3cc(F)c(-c4cccc(OCc5nccs5)n4)cc3F)n(C[C@@H]3CCO3)c2c1 [Example 11, (S)-2-(2,5-difluoro-4-(6-(thiazol-2-ylmethoxy)pyridin-2-yl)benzyl)-1-(oxetan-2-ylmethyl)-1H-benzo[d]imidazole-6-carboxylic acid] |
| 582 pM | N#Cc1ccc(C#Cc2cnc(COc3cccc(-c4cc(F)c(Cc5nc6ccc(C(=O)O)cc6n5C[C@@H]5CCO5)cc4F)n3)s2)cc1 [Example 325, (S)-2-(4-(6-((5-((4-cyanophenyl)ethynyl)thiazol-2-yl)methoxy)pyridin-2-yl)-2,5-difluorobenzyl)-1-(oxetan-2-ylmethyl)-1H-benzo[d]imidazole-6-carboxylic acid] |
| 530 pM | CC(C)(C#N)NC(=O)c1cc(Cl)c(COc2cccc(-c3cc(F)c(Cc4nc5ccc(C(=O)O)cc5n4C[C@@H]4CCO4)cc3F)n2)cn1 [Example 199, (S)-2-(4-(6-((4-chloro-6-((2-cyanopropan-2-yl)carbamoyl)pyridin-3-yl)methoxy)pyridin-2-yl)-2,5-difluorobenzyl)-1-(oxetan-2-ylmethyl)-1H-benzo[d]imidazole-6-carboxylic acid] |
| 374 pM | CC1(C)COC[C@H]1n1c(Cc2cc(F)c(-c3cccc(OCc4ncc(Cl)s4)n3)cc2F)nc2ccc(C(=O)O)cc21 [Example 254, (S)-2-(4-(6-((5-chlorothiazol-2-yl)methoxy)pyridin-2-yl)-2,5-difluorobenzyl)-1-(4,4-dimethyltetrahydrofuran-3-yl)-1H-benzo[d]imidazole-6-carboxylic acid] |
| 372 pM | N#CCCNC(=O)c1ccc(COc2cccc(-c3cc(F)c(Cc4nc5ccc(C(=O)O)cc5n4C[C@@H]4CCO4)cc3F)n2)cn1 [Example 375, (S)-2-(4-(6-((6-((2-cyanoethyl)carbamoyl)pyridin-3-yl)methoxy)pyridin-2-yl)-2,5-difluorobenzyl)-1-(oxetan-2-ylmethyl)-1H-benzo[d]imidazole-6-carboxylic acid] |
| 68 pM | CC(F)(F)c1cnc(COc2nc(-c3cc(F)c(Cc4nc5c(F)cc(C(=O)O)cc5n4C[C@@H]4CCO4)c(F)c3F)ccc2F)s1 [Example 378, (S)-2-(4-(6-((5-(1,1-difluoroethyl)thiazol-2-yl)methoxy)-5-fluoropyridin-2-yl)-2,3,6-trifluorobenzyl)-4-fluoro-1-(oxetan-2-ylmethyl)-1H-benzo[d]imidazole-6-carboxylic acid] |
| 51 pM | Cn1ncc(C#Cc2ccc(COc3cccc(-c4cc(F)c(Cc5nc6ccc(C(=O)O)cc6n5C[C@@H]5CCO5)cc4F)n3)c(F)c2)c1C(N)=O [Example 359, (S)-2-(4-(6-((4-((5-carbamoyl-1-methyl-1H-pyrazol-4-yl)ethynyl)-2-fluorobenzyl)oxy)pyridin-2-yl)-2,5-difluorobenzyl)-1-(oxetan-2-ylmethyl)-1H-benzo[d]imidazole-6-carboxylic acid] |
| 17 pM | CNC(=O)c1cc(Cl)c(COc2cccc(-c3cc(F)c(Cc4nc5c(F)cc(C(=O)O)cc5n4CC4(CF)CC4)c(F)c3F)n2)cn1 [Example 398, 2-(4-(6-((4-chloro-6-(methylcarbamoyl)pyridin-3-yl)methoxy)pyridin-2-yl)-2,3,6-trifluorobenzyl)-4-fluoro-1-((1-(fluoromethyl)cyclopropyl)methyl)-1H-benzo[d]imidazole-6-carboxylic acid] |
